Measured values from patent publication US20240180937A1, “CYTOKINE PRODUCTION SUPPRESSING COMPOSITION CONTAINING D-ALLOSE AS ACTIVE COMPONENT, AND METHOD OF TREATING OR PREVENTING DISEASE ASSOCIATED WITH CYTOKINE OVERPRODUCTION USING SAME” (NATIONAL UNIVERSITY CORPORATION KAGAWA UNIVERSITY, priority 2021, published 2024).

Columns and labels:
Assay type in all cases: cell-based, C57BL/6N mice
[1] = test system: intraperitoneal macrophages; test: TNF-α and nitric oxide production by intraperitoneal macrophages after LPS/IFN-γ stimulation; conditions: 100 ng/ml LPS and 5 ng/ml IFN-γ; sugar in the medium; supernatant after 20 to 24 hours; data not shown
Method: The obtained pDCs and cDCs were inoculated into a 96-well plate using glucose-free PRMI1640 medium with addition of 10 v/v % FCS, 100 μM 2-mercaptoethanol, 50 μg/ml streptomycin and 50 units/ml penicillin G, after which a rare sugar (D-allose, D-allulose or L-allulose) or D-glucose or D-fructose, was added to a final concentration of 0.2 w/v %. After administering 2 ml of 4 w/v % Brewer thioglycollate medium (Sigma) intraperitoneally to C57BL/6N mice, the intraperitoneal macrophages on the 3rd day were collected and used. After inoculation into the same medium as the DCs, stimulation was with 100 ng/ml of Lipopolysaccharide E. coli O111:B4 (Sigma) and 5 ng/ml of IFN-γ (Biolegend), the TNF-α in the culture supernatant after 20 to 24 hours was measured using ELISA by Biolegend and the nitric oxide was measured using a NO2/NO3 Assay Kit-C II (Colorimetric) (Griess Reagent Kit) (Dojindo Laboratories).

[2] = test system: plasmacytoid dendritic cells (pDC); test: Cytokine production by plasmacytoid dendritic cells (spleen or bone marrow) after TLR7/TLR9 ligand stimulation, ELISA of culture supernatant; conditions: for IFN-α production accompanying stimulation of pDCs / IL-12 production accompanying stimulation of pDCs: stimulation with TLR7 ligand poly(U) or TLR9 ligand CpG DNA (D19 and 1668), sugar 0.2 w/v % in glucose-free medium
Method: CD317-positive cells were prepared by magnetic bead sorting (MACS) from spleen cells obtained from C57BL/6N mice (Clea Japan, Inc.), as plasmacytoid dendritic cells (pDC) (FIG. 1(A)). CD11c-positive cells in the CD317-negative cell fraction were then prepared using magnetic beads, as conventional dendritic cells (CDC) (FIG. 1(A)). CD317-positive cells were also prepared using magnetic beads from bone marrow cells obtained from C57BL/6N mice (Clea Japan, Inc.), as bone marrow pDCs (FIG. 1(B)).
The obtained pDCs and cDCs were inoculated into a 96-well plate using glucose-free PRMI1640 medium with addition of 10 v/v % FCS, 100 μM 2-mercaptoethanol, 50 μg/ml streptomycin and 50 units/ml penicillin G, after which a rare sugar (D-allose, D-allulose or L-allulose) or D-glucose or D-fructose, was added to a final concentration of 0.2 w/v %.
The pDCs were stimulated with non-stimulating medium and TLR7 ligand (polyuridylic acid at a final concentration of 2.5 μg/ml (Poly(U) (Sigma) mixed with Lipofectamine 2000 (Thermo Fisher Scientific)), 100 nM R848 (InvivoGen), or TLR9 ligand (synthetic DNA (3 μM of D19: 5′-GGtgcatcgatgcagGGGGg-3′ and 0.03 μM of 1668: 5′-[…]-3′ (where uppercase indicates phosphorothioate DNA and lowercase indicates phosphodiester DNA))), and the IFN-α in the culture supernatant after 20 to 24 hours was measured using ELISA by InvivoGen while the IL-12p40 was measured using ELISA by Biolegend.

[3] = test system: conventional dendritic cells (cDC); test: Cytokine production by spleen-derived conventional dendritic cells after stimulation, ELISA of culture supernatant
Method: CD317-positive cells were prepared by magnetic bead sorting (MACS) from spleen cells obtained from C57BL/6N mice (Clea Japan, Inc.), as plasmacytoid dendritic cells (pDC) (FIG. 1(A)). CD11c-positive cells in the CD317-negative cell fraction were then prepared using magnetic beads, as conventional dendritic cells (CDC) (FIG. 1(A)). CD317-positive cells were also prepared using magnetic beads from bone marrow cells obtained from C57BL/6N mice (Clea Japan, Inc.), as bone marrow pDCs (FIG. 1(B)). The obtained pDCs and cDCs were inoculated into a 96-well plate using glucose-free PRMI1640 medium with addition of 10 v/v % FCS, 100 μM 2-mercaptoethanol, 50 μg/ml streptomycin and 50 units/ml penicillin G, after which a rare sugar (D-allose, D-allulose or L-allulose) or D-glucose or D-fructose, was added to a final concentration of 0.2 w/v %. The cDCs were stimulated with non-stimulating medium, 100 nM of R848 and 1 μM of 1668, and the IL-12p40 in the culture supernatant after 20 to 24 hours was measured using ELISA by Biolegend.

[4] = supernatant after 20 to 24 hours
[5] = supernatant after 20 to 24 hours, IL-12p40 ELISA

Q: With O=C[C@H](O)[C@H](O)[C@H](O)[C@H](O)CO [D-allose] as the molecule, how does the “TNF-α production by macrophages upon lipopolysaccharide (LPS) stimulation” value (from here on “TNF-α production”) [1] read?
A: not attenuated

Q: And the “nitric oxide production by macrophages upon lipopolysaccharide (LPS) stimulation” value (“nitric oxide production” for short) [1]?
A: not attenuated

Q: What about the “IFN-α production by pDCs after low molecular weight TLR7 ligand stimulation” value ([2]; low molecular weight TLR7 ligands including R848 (100 nM), sugar 0.2 w/v %, supernatant after 20 to 24 hours) of the same molecule?
A: not reduced

Q: What about the “IL-12 production by pDCs after low molecular weight TLR7 ligand stimulation” value ([2]; low molecular weight TLR7 ligands including R848 (100 nM), sugar 0.2 w/v %, supernatant after 20 to 24 hours, IL-12p40 ELISA) of the same molecule?
A: not reduced

Q: And the “IFN-α production accompanying stimulation of pDCs” value [2, 4]?
A: notably attenuated

Q: What about the “IL-12 production accompanying stimulation of pDCs” value [2, 5] of the same molecule?
A: notably attenuated

Q: What about the “pDC cytokine production after activation in medium containing D-allose” value ([2]; summary statement) of the same molecule?
A: lowered

Q: And the “IL-12 production by cDCs after CpG DNA (1668) stimulation” value ([3]; 1 μM 1668, sugar 0.2 w/v %, supernatant after 20 to 24 hours, IL-12p40 ELISA)?
A: not lowered

Q: What about the “cDC cytokine production after activation in medium containing D-allose” value ([3]; summary statement) of the same molecule?
A: not lowered

Q: How did the “TNF-α production” value [1] turn out when O=C(CO)[C@H](O)[C@H](O)[C@H](O)CO [D-allulose] was run?
A: not attenuated

Q: What about the “nitric oxide production” value [1] of the same molecule?
A: not attenuated

Q: What about the “IFN-α production accompanying stimulation of pDCs” value [2, 4] of the same molecule?
A: not observed

Q: What about the “IL-12 production accompanying stimulation of pDCs” value [2, 5] of the same molecule?
A: not observed

Q: O=C(CO)[C@@H](O)[C@H](O)[C@H](O)CO [D-fructose] was tested. Which “TNF-α production” value [1] did it give?
A: not attenuated

Q: What about the “nitric oxide production” value [1] of the same molecule?
A: not attenuated

Q: And the “IFN-α production accompanying stimulation of pDCs” value [2, 4]?
A: not observed

Q: What about the “IL-12 production accompanying stimulation of pDCs” value [2, 5] of the same molecule?
A: not observed

Q: For O=C[C@H](O)[C@@H](O)[C@H](O)[C@H](O)CO [D-glucose], which “IFN-α production accompanying stimulation of pDCs” value [2, 4] is on record?
A: not observed

Q: What about the “IL-12 production accompanying stimulation of pDCs” value [2, 5] of the same molecule?
A: not observed

Q: How did the “TNF-α production” value [1] turn out when O=C(CO)[C@@H](O)[C@@H](O)[C@@H](O)CO [L-allulose] was run?
A: not attenuated

Q: And the “nitric oxide production” value [1]?
A: not attenuated

Q: What about the “IFN-α production accompanying stimulation of pDCs” value [2, 4] of the same molecule?
A: not observed

Q: And the “IL-12 production accompanying stimulation of pDCs” value [2, 5]?
A: not observed
